Values quoted from earlier work as cited in US6344571B2, “Water soluble analogs and prodrugs of paclitaxel” (Pharmachemie B.V., priority 1998, dated 2002).

How the values were obtained:
microtubule assembly = conditions: SAR studies, literature; cited from earlier work
[1] = SAR studies, literature; cited from earlier work

SMILES | activity in microtubule assembly assays (microtubule assembly) | cytotoxic activity compared with paclitaxel [1]
CC(=O)O[C@H]1C(=O)[C@@]2(C)[C@H]([C@H](OC(=O)c3ccccc3)[C@]3(O)C[C@H](OC(=O)[C@H](OC(C)=O)[C@@H](NC(=O)c4ccccc4)c4ccccc4)C(C)=C1C3(C)C)[C@]1(OC(C)=O)CO[C@@H]1C[C@@H]2O [2′-acetyl-paclitaxel] | loss of the ability to promote microtubule assembly | almost the same as for paclitaxel
CC(=O)O[C@H]1C(=O)[C@]2(C)[C@@H](OC(C)=O)C[C@H]3OC[C@@]3(OC(C)=O)[C@H]2[C@H](OC(=O)c2ccccc2)[C@]2(O)C[C@H](OC(=O)[C@H](O)[C@@H](NC(=O)c3ccccc3)c3ccccc3)C(C)=C1C2(C)C [7-acetylpaclitaxel] | as active as paclitaxel | –
